# US9790201B2, “Piperidine and azepine derivatives as prokineticin receptor modulators” (TAKEDA PHARMACEUTICAL COMPANY LIMITED, priority 2013, dated 2017)
# Structures can show the parent of a compound that is named as a salt.
# Biological target: human PKR1 receptors (Homo sapiens (Human), UniProt Q8TCW9)
# Assay: PKR1 antagonist assay: block of PK1-mediated intracellular calcium release (FLIPR Tetra)
# Assay type: cell-based
# Details: RBL2H3 cells expressing human PKR1; stimulation with PK1 at EC80; calcium fluorescence
# Experimental: Prokineticin receptor 1 (PKR1) antagonists may be functionally assessed by measurement of change in intracellular calcium levels induced by Gq mediated increase in inositol triphosphate (IP3) levels. The ability of a compound to block the intracellular release of calcium mediated by PK1 in RBL2H3 cells expressing human PKR1 receptors is determined as a measure of the compound's antagonist activity in vitro.
# Approximately 10,000 cells per assay well are seeded in normal culture medium in a 384 well plate (Corning). Twenty-four hours after seeding, the cells are loaded with a calcium sensitive fluorescent dye by replacing the culture medium with assay buffer (1× Hanks buffered saline, 25 mM HEPES, 0.1% w/v fatty acid free BSA (bovine serum albumin), pH 7.4) containing 1 mM probenecid and 1× Calcium 5 Reagent (Molecular Devices). Cells are incubated at 37° C. for 1 hour to allow for dye uptake.
# To test for antagonist activity, test compounds at a final concentration range between 0.32 nM-10 μM (diluted in assay buffer) are added to the assay wells and allowed to incubate for 10 minutes prior to stimulation with PK1. After incubation with test compounds the assay plate is placed in a FLIPR Tetra (Molecular Devices) and PK1 (diluted in assay buffer) is added at the determined EC80 concentration (final). Ligand-dependent changes in intracellular calcium levels are determined by measuring changes in fluorescence of the dye at […] following excitation at 485 nm.
# human PKR1 receptors, sequence (Q8TCW9 whole entry): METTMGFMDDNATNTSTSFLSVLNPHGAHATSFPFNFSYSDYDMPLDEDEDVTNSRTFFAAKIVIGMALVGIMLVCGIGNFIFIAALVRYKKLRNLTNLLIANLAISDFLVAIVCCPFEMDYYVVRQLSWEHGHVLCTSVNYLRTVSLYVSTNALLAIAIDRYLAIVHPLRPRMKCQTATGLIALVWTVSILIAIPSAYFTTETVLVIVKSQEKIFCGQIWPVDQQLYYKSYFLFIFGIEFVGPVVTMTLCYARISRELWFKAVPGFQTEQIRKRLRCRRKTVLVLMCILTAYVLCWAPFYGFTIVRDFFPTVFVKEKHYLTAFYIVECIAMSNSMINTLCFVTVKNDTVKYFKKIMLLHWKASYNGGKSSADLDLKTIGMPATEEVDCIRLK
row,IC50,Compound
1,5530 nM,"CCN(C)c1cc(C(=O)N2CCCC(c3ccc(C)cc3)C2)ccn1 (stereo not drawn) [Example 37, N-Ethyl-N-methyl-4-{[3-(4-methylphenyl)piperidin-1-yl]carbonyl}pyridin-2-amine]"
2,6500 nM,"Cc1ccc(C2CCCN(C(=O)c3ccnc(N4CC(F)(F)C4)c3)C2)cc1 (stereo not drawn) [Example 38, 2-(3,3-Difluoroazetidin-1-yl)-4-{[3-(4-methylphenyl)piperidin-1-yl]carbonyl}pyridine]"
3,8220 nM,"CCCN(C)c1cc(C(=O)N2CCCC(c3ccc(C)cc3)C2)ccn1 (stereo not drawn) [Example 39, N-Methyl-4-{[3-(4-methylphenyl)piperidin-1-yl]carbonyl}-N-propylpyridin-2-amine]"
4,7030 nM,"Cc1ccc(C2CCCN(C(=O)c3ccnc(N(C)C(C)C)c3)C2)cc1 (stereo not drawn) [Example 40, N-Methyl-4-{[3-(4-methylphenyl)piperidin-1-yl]carbonyl}-N-(propan-2-yl)pyridin-2-amine]"
5,8460 nM,"Cc1ccc(C2CCCN(C(=O)c3ccnc(N4CC(O)C4)c3)C2)cc1 (stereo not drawn) [Example 41, 1-(4-{[3-(4-Methylphenyl)piperidin-1-yl]carbonyl}pyridin-2-yl)azetidin-3-ol]"
6,8350 nM,"CCOc1cc(C(=O)N2CCCC(c3ccc(Cl)cc3)C2)ccn1 (stereo not drawn) [Example 42, 4-{[3-(4-Chlorophenyl)piperidin-1-yl]carbonyl}-2-ethoxypyridine]"
7,7050 nM,"Cc1ccc(C2CCCN(C(=O)c3ccnc(N(C)C4CC4)c3)C2)cc1 (stereo not drawn) [Example 43, N-Cyclopropyl-N-methyl-4-{[3-(4-methylphenyl)piperidin-1-yl]carbonyl}pyridin-2-amine]"
8,4400 nM,"CN(C)c1cc(C(=O)N2CCCC(c3ccc(C(F)(F)F)cc3)C2)ccn1 (stereo not drawn) [Example 44, N,N-Dimethyl-4-({3-[4-(trifluoromethyl)phenyl]piperidin-1-yl}carbonyl)pyridin-2-amine formate]"
9,220 nM,"CN(C)c1cc(C(=O)N2CCCC(c3ccccc3C(F)(F)F)C2)ccn1 (stereo not drawn) [Example 45, N,N-Dimethyl-4-({3-[2-(trifluoromethyl)phenyl]piperidin-1-yl}carbonyl)pyridin-2-amine]"
10,7790 nM,"CN(C)c1cc(C(=O)N2CCCC(c3ccccc3Cl)C2)ccn1 (stereo not drawn) [Example 46, 4-{[3-(2-Chlorophenyl)piperidin-1-yl]carbonyl}-N,N-dimethylpyridin-2-amine]"
11,460 nM,"COc1ccc(C2CCCN(C(=O)c3ccnc(N(C)C)c3)C2)cc1 (stereo not drawn) [Example 47, 4-{[3-(4-Methoxyphenyl)piperidin-1-yl]carbonyl}-N,N-dimethylpyridin-2-amine]"
12,410 nM,"COc1ccccc1C1CCCN(C(=O)c2ccnc(N(C)C)c2)C1 (stereo not drawn) [Example 48, 4-{[3-(2-Methoxyphenyl)piperidin-1-yl]carbonyl}-N,N-dimethylpyridin-2-amine]"
13,420 nM,"Cc1ccc(C2CCCN(C(=O)c3ccnc(N(C)C)c3)C2)cc1 (stereo not drawn) [Example 49, N,N-Dimethyl-4-{[3-(4-methylphenyl)piperidin-1-yl]carbonyl}pyridin-2-amine]"
14,510 nM,"CCc1cc(C(=O)N2CCCC(c3ccc(Cl)cc3)C2)ccn1 (stereo not drawn) [Example 52, 4-{[3-(4-Chlorophenyl)piperidin-1-yl]carbonyl}-2-ethylpyridine]"
15,2920 nM,"CNc1cc(C(=O)N2CCCC(c3ccc(C(F)(F)F)cc3)C2)ccn1 (stereo not drawn) [Example 53, N-Methyl-4-({3-[4-(trifluoromethyl)phenyl]piperidin-1-yl}carbonyl)pyridin-2-amine]"
16,230 nM,"CNc1cc(C(=O)N2CCCC(c3ccccc3C(F)(F)F)C2)ccn1 (stereo not drawn) [Example 54, N-Methyl-4-({3-[2-(trifluoromethyl)phenyl]piperidin-1-yl}carbonyl)pyridin-2-amine]"
17,350 nM,"CNc1cc(C(=O)N2CCCC(c3ccc(OC)cc3)C2)ccn1 (stereo not drawn) [Example 55, 4-{[3-(4-Methoxyphenyl)piperidin-1-yl]carbonyl}-N-methylpyridin-2-amine hemi formate]"
18,440 nM,"CNc1cc(C(=O)N2CCCC(c3ccccc3OC)C2)ccn1 (stereo not drawn) [Example 56, 4-{[3-(2-Methoxyphenyl)piperidin-1-yl]carbonyl}-N-methylpyridin-2-amine]"
19,50 nM,"CNc1cc(C(=O)N2CCCC(c3ccc(Cl)cc3C(F)(F)F)C2)ccn1 (stereo not drawn) [Example 57, 4-({3-[4-Chloro-2-(trifluoromethyl)phenyl]piperidin-1-yl}carbonyl)-N-methylpyridin-2-amine]"
20,820 nM,"CCc1cc(C(=O)N2CCCC(c3ccccc3C(F)(F)F)C2)ccn1 (stereo not drawn) [Example 58, 2-Ethyl-4-({3-[2-(trifluoromethyl)phenyl]piperidin-1-yl}carbonyl)pyridine]"

row,IC50,Compound
1,1600 nM,"CCc1cc(C(=O)N2CCCC(c3ccccc3OC)C2)ccn1 (stereo not drawn) [Example 59, 2-Ethyl-4-{[3-(2-methoxyphenyl)piperidin-1-yl]carbonyl}pyridine]"
2,1600 nM,"CN(C)c1cc(C(=O)N2CCCC(c3ccccc3OC(F)(F)F)C2)ccn1 (stereo not drawn) [Example 60, N,N-Dimethyl-4-({3-[2-(trifluoromethoxy)phenyl]piperidin-1-yl}carbonyl)pyridin-2-amine]"
3,100 nM,"CCOc1cc(Cl)ccc1C1CCCN(C(=O)c2ccnc(N(C)C)c2)C1 (stereo not drawn) [Example 61, 4-{[3-(4-Chloro-2-ethoxyphenyl)piperidin-1-yl]carbonyl}-N,N-dimethylpyridin-2-amine]"
4,100 nM,"COc1ccc(C2CCCN(C(=O)c3ccnc(N(C)C)c3)C2)c(C(F)(F)F)c1 (stereo not drawn) [Example 62, 4-({3-[4-Methoxy-2-(trifluoromethyl)phenyl]piperidin-1-yl}carbonyl)-N,N-dimethylpyridin-2-amine]"
5,40 nM,"CNc1cc(C(=O)N2CCCC(c3ccc(OC)cc3C)C2)ccn1 (stereo not drawn) [Example 63, 4-{[3-(4-Methoxy-2-methylphenyl)piperidin-1-yl]carbonyl}-N-methylpyridin-2-amine]"
6,50 nM,"CNc1cc(C(=O)N2CCCC(c3ccc(OC)cc3C(F)(F)F)C2)ccn1 (stereo not drawn) [Example 64, 4-({3-[4-Methoxy-2-(trifluoromethyl)phenyl]piperidin-1-yl}carbonyl)-N-methylpyridin-2-amine formate]"
7,70 nM,"CCOc1cc(Cl)ccc1C1CCCN(C(=O)c2ccnc(NC)c2)C1 (stereo not drawn) [Example 65, 4-{[3-(4-Chloro-2-ethoxyphenyl)piperidin-1-yl]carbonyl}-N-methylpyridin-2-amine]"
8,700 nM,"CN(C)c1cc(C(=O)N2CCCC(c3ccccc3OC(F)F)C2)ccn1 (stereo not drawn) [Example 66, 4-({3-[2-(Difluoromethoxy)phenyl]piperidin-1-yl}carbonyl)-N,N-dimethylpyridin-2-amine]"
9,2260 nM,"CN(C)c1cc(C(=O)N2CCCC(c3ccccc3C#N)C2)ccn1 (stereo not drawn) [Example 67, 2-(1-{[2-(Dimethylamino)pyridin-4-yl]carbonyl}piperidin-3-yl)benzonitrile]"
10,1540 nM,"Cc1cc(Cl)cc(C)c1C1CCCN(C(=O)c2ccnc(N(C)C)c2)C1 (stereo not drawn) [Example 68, 4-{[3-(4-Chloro-2,6-dimethylphenyl)piperidin-1-yl]carbonyl}-N,N-dimethylpyridin-2-amine]"
11,810 nM,"CN(C)c1cc(C(=O)N2CCCC(c3ccc(Cl)cc3)C2)cnn1 (stereo not drawn) [Example 69, 5-{[3-(4-Chlorophenyl)piperidin-1-yl]carbonyl}-N,N-dimethylpyridazin-3-amine]"
12,70 nM,"CNc1cc(C(=O)N2CCCC(c3ccc(Cl)cc3C)C2)cnn1 (stereo not drawn) [Example 71, 5-{[3-(4-Chloro-2-methylphenyl)piperidin-1-yl]carbonyl}-N-methylpyridazin-3-amine]"
13,30 nM,"CNc1cc(C(=O)N2CCC[C@H](c3ccc(Cl)cc3C)C2)cnn1 [Example 72, 5-{[(3R)-3-(4-Chloro-2-methylphenyl)piperidin-1-yl]carbonyl}-N-methylpyridazin-3-amine]"
14,350 nM,"COc1cc(C(=O)N2CCCC(c3ccc(Cl)cc3C)C2)cnn1 (stereo not drawn) [Example 74, 5-{[3-(4-Chloro-2-methylphenyl)piperidin-1-yl]carbonyl}-3-methoxypyridazine]"
15,110 nM,"CN(C)c1cc(C(=O)N2CCCC(c3ccc(Cl)cc3C(F)(F)F)C2)cnn1 (stereo not drawn) [Example 75, 5-({3-[4-Chloro-2-(trifluoromethyl)phenyl]piperidin-1-yl}carbonyl)-N,N-dimethylpyridazin-3-amine]"
16,80 nM,"CNc1cc(C(=O)N2CCCC(c3ccc(Cl)cc3C(F)(F)F)C2)cnn1 (stereo not drawn) [Example 76, 5-({3-[4-Chloro-2-(trifluoromethyl)phenyl]piperidin-1-yl}carbonyl)-N-methylpyridazin-3-amine]"
17,730 nM,"O=C(c1cnnc(N2CCC2)c1)N1CCCC(c2ccc(Cl)cc2C(F)(F)F)C1 (stereo not drawn) [Example 77, 3-(Azetidin-1-yl)-5-({3-[4-chloro-2-(trifluoromethyl)phenyl]piperidin-1-yl}carbonyl)pyridazine]"
18,3000 nM,"CNc1cc(C(=O)N2CCCC(c3ccc(C(F)(F)F)cc3OC)C2)cnn1 (stereo not drawn) [Example 78, 5-({3-[2-Methoxy-4-(trifluoromethyl)phenyl]piperidin-1-yl}carbonyl)-N-methylpyridazin-3-amine]"
19,130 nM,"CNc1cc(C(=O)N2CCCC(c3ccc(OC)cc3C)C2)cnn1 (stereo not drawn) [Example 79, 5-{[3-(4-Methoxy-2-methylphenyl)piperidin-1-yl]carbonyl}-N-methylpyridazin-3-amine]"
